Patent publication US20060079497A1, “Lavendamycin analogues and methods of synthesizing and using lavendamycin analogues” (Ball State University, priority 2004, published 2006)

How the values were obtained:
[1] = target: T1, HIV-RT (Human immunodeficiency virus type 1 group M subtype B, UniProt P04585); experiment: Checkerboard combination of lavendamycin analogs with AZT-triphosphate in HIV-RT enzyme assay (Chou and Talalay); assay type: biochemical
T1 construct: 1 unit/mL of HIV-RT (Worthington Biochemical Corp., Freehold, N.J.); purchased Worthington Biochemical Corp., Freehold, N.J
Description: The results were analyzed by the method of Chou and Talalay based on the median-effect principle and represented by combination indices (CI) determined for each of the two drug combinations (e.g., see: Chou, T. C.; Talalay, P. “Quantitative Analysis of Dose-Effect Relationships: The Combined Effects of Multiple Drugs or Enzyme Inhibitors,” Adv. Enzyme Regul., 1984, 22, 27-65; and Chou, J.; Chou, T. C. “Dose-Effect Analysis with Microcomputers: Quantitation of ED50, LD50, Synergism, Antagonism, Low-Dose Risk, Receptor-Ligand Binding and Enzyme Kinetics,” In: A computer Software for IBM-PC and Manual, Cambridge, UK, Elsevier-Biosoft, 1987). This method involves the plotting of dose-effect curves for each agent and for each of the different combinations of the agents. The slope of the median-effect plot, which signifies the shape of the dose-effect curve, and the x intercept of the plot, which signifies the potency of each compound alone and each combination, were then used for a computerized calculation of a combination index.
(§1) The assay procedure described below is adapted from Okada et al. (Okada, H.; Mukai, H.; Inouye, Y; Nakamura, S. “Biological Properties of Streptonigrin Derivatives II. Inhibition of Reverse Transcriptase Activity,” J. Antibiot., 1986, 39, 306-308). The lavendamycin analogs were initially dissolved in DMSO at a concentration of 1 mg/mL. Occasionally, mild sonication and heat were used to dissolve the less soluble compounds. The dissolved analogs were then serially diluted in distilled water to achieve concentrations in the final reaction mixture ranging from 0.5-15 μM. In addition to the lavendamycin analogs, the final reaction mixture contained 100 mM Tris-HCl (pH 8.0), 5 mM MgCl2, 5 mM dithiothreitol, 60 mM NaCl, 0.2 mM [^3H] thymidine triphosphate(5 μCi well), 4 μg/mL poly (rA)-oligo(dT)12-18 (Amersham Pharmacia Biotech, Piscataway, N.J.) and 1 unit/mL of HIV-RT (Worthington Biochemical Corp., Freehold, N.J.) in a total volume of 300 μL. For each assay, the reaction mixture containing 8× buffer, double distilled H2O, ^3HTTP, template-primer and HIV-RT was pre-mixed in a 15-mL sterile tube in quantities required for the particular experiment. After adding the enzyme, the reaction mixture was mixed and kept on ice. The inhibitors, either AZT(Moravek Biochemicals, Brea, Calif.), analogs or both were added to appropriate wells in a 24 well microtiter plate and ddH2O was added to each well to bring the volume of all test wells to 100 μL. Two hundred μL of the chilled reaction mixture was then added to each of the test wells, mixed, and incubated for 1 hr at 37° C. Several control wells with no inhibitors were included on each test plate. After stopping the reactions with 25 μL 0.1 M EDTA, triplicate samples of 15 μL from each test well were spotted on DE81 ion exchange filter paper squares (Whatman Paper, Maidstone, England). After drying, each filter was washed for 10 minutes three times with 5% TCA-NHPO4, three times with 0.6M NaCl-[…] Na Citrate, one time with ddH2O and one time with 95% ethanol. After drying the individual filter papers were added to 5 mL Scintiverse E (Fisher Scientific, Chicago, Ill.) scintillation fluid and the amount of 3H-TTP uptake measured as counts per minute on a Beckman liquid scintillation counter. […] The results were then analyzed using Calcusyn, a windows software program for dose effect analysis designed by T. -C. Chou and M. P. Hayball and published by Biosoft® (UK).

[2] = Water solubility in HEPES buffer solution; assay type: physicochemical
[3] = target: T1, HIV-RT; experiment: Two drug combination of AZT-TP and analogues at constant molar ratios in HIV-RT assay (CI and dose reduction index); assay type: biochemical
Text: In order to derive the dose reduction index of several of these compounds the method of Chou and Talalay was again employed using the classic isobologram technique. This method also involves the plotting of dose-effect curves for each agent as well as for multiply diluted fixed-ratio combinations of the agents.
The dose reduction index is a measure of how much the dose of each drug in a synergistic combination may be reduced at a given effect level compared with the doses of each drug alone.
as §1

[4] = system: BALB/c mice; experiment: In vivo toxicity of analogue 19 in BALB/c mice; set-up: species or system mouse
Text: Analogue 19 was first solubilized in 10% dry DMSO, diluted in water, and given to the mice intraperitoneally in one dose or in two doses per day. Mice were weighed and observed for 3 days following treatment.

Compound `CC(=O)NC1=CC(=O)c2ccc(-c3nc(C(=O)OCCOP(=O)(O)O)cc4c3[nH]c3ccccc34)nc2C1=O` [Compound 19] has a Combination index ([1]; analogue 0.75 μM + AZT 0.007 μM, Trial 1) of 0.47, a Combination index ([1]; analogue 0.75 μM + AZT 0.007 μM, Trial 2) of 0.68 and a Combination index ([1]; analogue 0.75 μM + AZT 0.01 μM, Trial 1) of 0.64. The Combination index ([1]; analogue 0.75 μM + AZT 0.01 μM, Trial 2) was 1.04, the Combination index ([1]; analogue 1.5 μM + AZT 0.007 μM, Trial 1) was 0.49 and the Combination index ([1]; analogue 1.5 μM + AZT 0.007 μM, Trial 2) was 0.81. The Combination index ([1]; analogue 1.5 μM + AZT 0.01 μM, Trial 1) was 0.69, the Combination index ([1]; analogue 1.5 μM + AZT 0.01 μM, Trial 2) was 0.69 and the Combination index ([1]; analogue 3 μM + AZT 0.007 μM, Trial 1) was 0.49. For the same compound, the Combination index ([1]; analogue 3 μM + AZT 0.007 μM, Trial 2) was 0.79, the Combination index ([1]; analogue 3 μM + AZT 0.01 μM, Trial 1) was 0.28 and the Combination index ([1]; analogue 3 μM + AZT 0.01 μM, Trial 2) was 0.56. The Combination index ([1]; analogue 6 μM + AZT 0.007 μM, Trial 1) was 0.32, the Combination index ([1]; analogue 6 μM + AZT 0.007 μM, Trial 2) was 0.60 and the Combination index ([1]; analogue 6 μM + AZT 0.01 μM, Trial 1) was 0.28. The Combination index ([1]; analogue 6 μM + AZT 0.01 μM, Trial 2) was 0.75, the Water solubility [2] was 0.05 mg/1 mL and the “dose reduction in combination with AZT-TP” value [3] was “considerable dose reduction”. The “CI at HIV-RT Inhibition of 50%” value ([3]; molar ratio AZT:analogue 1:600) was <0.1 ± 0.10, the “CI at HIV-RT Inhibition of 70%” value ([3]; molar ratio AZT:analogue 1:600) was <0.1 ± 0.16 and the “Dose Reduction Index (50%) AZT-TP” value ([3]; molar ratio AZT:analogue 1:600) was >100. The “Dose Reduction Index (50%) analogue” value ([3]; molar ratio AZT:analogue 1:600) was >100, the “CI at HIV-RT Inhibition of 50%” value ([3]; molar ratio AZT:analogue 1:857) was <0.1 ± 0.15 and the “CI at HIV-RT Inhibition of 70%” value ([3]; molar ratio AZT:analogue 1:857) was 0.21 ± 0.18. For the same compound, the “Dose Reduction Index (50%) AZT-TP” value ([3]; molar ratio AZT:analogue 1:857) was >40, the “Dose Reduction Index (50%) analogue” value ([3]; molar ratio AZT:analogue 1:857) was >15 and the survival and tolerability ([4]; 50 mg/kg as one ip injection) was “survived and tolerated”. The survival and tolerability ([4]; 75 mg/kg ip in two injections within twenty-four hours) was “survived and tolerated”.
